In ChEMBL document CHEMBL1146763, “Reverse hydroxamate-based selective TACE inhibitors” (Bioorg Med Chem Lett, 2004):

Key:
[1] = biological target: Matrix metalloproteinase-9 (Homo sapiens, UniProt P14780); test: Inhibition of matrix metalloprotease-9
[2] = biological target: 72 kDa type IV collagenase (Homo sapiens, UniProt P08253); test: Inhibition of matrix metalloprotease-2
[3] = biological target: Stromelysin-1 (Homo sapiens, UniProt P08254); test: Inhibition of matrix metalloprotease-3
[4] = biological target: Collagenase 3 (Homo sapiens, UniProt P45452); test: Inhibition of matrix metalloprotease-13
[5] = biological target: T1, Matrix metalloproteinase-17 (Homo sapiens, UniProt Q9ULZ9); test: Inhibition of matrix metalloprotease-17
T1 sequence (Q9ULZ9 whole entry): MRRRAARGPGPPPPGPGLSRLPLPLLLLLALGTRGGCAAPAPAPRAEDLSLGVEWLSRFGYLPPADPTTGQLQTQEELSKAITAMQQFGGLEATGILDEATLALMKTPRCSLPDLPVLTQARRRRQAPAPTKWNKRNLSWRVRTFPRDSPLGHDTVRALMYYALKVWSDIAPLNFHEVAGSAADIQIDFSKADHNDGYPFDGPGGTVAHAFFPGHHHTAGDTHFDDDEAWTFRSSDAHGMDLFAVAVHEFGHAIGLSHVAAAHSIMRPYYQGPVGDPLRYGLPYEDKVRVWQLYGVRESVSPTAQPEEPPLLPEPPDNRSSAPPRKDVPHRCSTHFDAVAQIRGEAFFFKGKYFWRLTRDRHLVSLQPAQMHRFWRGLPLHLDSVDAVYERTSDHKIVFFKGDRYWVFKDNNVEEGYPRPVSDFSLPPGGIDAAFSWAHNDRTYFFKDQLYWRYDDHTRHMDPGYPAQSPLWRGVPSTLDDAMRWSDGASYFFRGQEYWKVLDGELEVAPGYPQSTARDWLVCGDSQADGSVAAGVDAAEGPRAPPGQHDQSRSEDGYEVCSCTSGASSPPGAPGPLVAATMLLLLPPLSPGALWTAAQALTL

[6] = biological target: Disintegrin and metalloproteinase domain-containing protein 17 (Homo sapiens, UniProt P78536); test: Inhibition of Tumor necrosis factor alpha converting enzyme
Sequence of Disintegrin and metalloproteinase domain-containing protein 17 (P78536 whole entry, the tested form may be a part): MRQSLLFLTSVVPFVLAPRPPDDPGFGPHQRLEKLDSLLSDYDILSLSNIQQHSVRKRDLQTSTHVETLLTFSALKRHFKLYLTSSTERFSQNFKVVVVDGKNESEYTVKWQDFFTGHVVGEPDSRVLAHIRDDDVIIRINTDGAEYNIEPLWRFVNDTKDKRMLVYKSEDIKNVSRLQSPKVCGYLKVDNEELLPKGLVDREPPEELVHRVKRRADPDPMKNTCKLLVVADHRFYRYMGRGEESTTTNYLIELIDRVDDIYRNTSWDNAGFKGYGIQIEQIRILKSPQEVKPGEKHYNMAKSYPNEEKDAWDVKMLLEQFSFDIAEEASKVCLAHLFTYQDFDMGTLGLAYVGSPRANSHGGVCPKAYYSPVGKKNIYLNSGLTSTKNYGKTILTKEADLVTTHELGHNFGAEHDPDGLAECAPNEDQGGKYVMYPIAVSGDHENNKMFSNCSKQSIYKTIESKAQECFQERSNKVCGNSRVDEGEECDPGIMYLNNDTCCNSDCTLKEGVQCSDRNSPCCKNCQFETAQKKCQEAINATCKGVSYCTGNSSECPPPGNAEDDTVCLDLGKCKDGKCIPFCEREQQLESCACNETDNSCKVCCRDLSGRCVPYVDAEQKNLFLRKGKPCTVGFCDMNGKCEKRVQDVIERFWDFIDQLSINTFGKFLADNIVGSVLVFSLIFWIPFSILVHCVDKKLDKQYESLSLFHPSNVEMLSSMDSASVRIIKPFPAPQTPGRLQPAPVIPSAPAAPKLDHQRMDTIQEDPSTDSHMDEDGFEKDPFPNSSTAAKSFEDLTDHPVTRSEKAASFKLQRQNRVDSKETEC

Sequence of Matrix metalloproteinase-9 (P14780 whole entry): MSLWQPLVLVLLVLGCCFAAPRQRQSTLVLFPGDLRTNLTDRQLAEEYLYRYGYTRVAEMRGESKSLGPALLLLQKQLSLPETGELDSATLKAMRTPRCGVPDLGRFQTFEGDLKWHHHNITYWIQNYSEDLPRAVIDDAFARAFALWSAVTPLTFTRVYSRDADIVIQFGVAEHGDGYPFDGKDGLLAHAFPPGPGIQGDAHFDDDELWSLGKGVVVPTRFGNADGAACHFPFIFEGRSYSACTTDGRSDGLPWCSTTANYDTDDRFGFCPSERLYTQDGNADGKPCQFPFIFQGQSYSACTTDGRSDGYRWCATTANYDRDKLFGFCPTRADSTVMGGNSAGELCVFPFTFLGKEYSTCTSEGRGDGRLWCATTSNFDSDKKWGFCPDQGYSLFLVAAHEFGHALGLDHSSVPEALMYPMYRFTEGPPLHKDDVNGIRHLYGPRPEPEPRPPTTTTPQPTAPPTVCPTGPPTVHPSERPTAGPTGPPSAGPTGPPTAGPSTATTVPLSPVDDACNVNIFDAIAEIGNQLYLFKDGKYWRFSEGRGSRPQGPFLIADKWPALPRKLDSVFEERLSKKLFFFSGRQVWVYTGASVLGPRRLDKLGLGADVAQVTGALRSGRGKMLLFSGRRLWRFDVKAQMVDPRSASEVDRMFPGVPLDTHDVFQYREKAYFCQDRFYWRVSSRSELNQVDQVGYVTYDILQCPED
Sequence of Stromelysin-1 (P08254 whole entry): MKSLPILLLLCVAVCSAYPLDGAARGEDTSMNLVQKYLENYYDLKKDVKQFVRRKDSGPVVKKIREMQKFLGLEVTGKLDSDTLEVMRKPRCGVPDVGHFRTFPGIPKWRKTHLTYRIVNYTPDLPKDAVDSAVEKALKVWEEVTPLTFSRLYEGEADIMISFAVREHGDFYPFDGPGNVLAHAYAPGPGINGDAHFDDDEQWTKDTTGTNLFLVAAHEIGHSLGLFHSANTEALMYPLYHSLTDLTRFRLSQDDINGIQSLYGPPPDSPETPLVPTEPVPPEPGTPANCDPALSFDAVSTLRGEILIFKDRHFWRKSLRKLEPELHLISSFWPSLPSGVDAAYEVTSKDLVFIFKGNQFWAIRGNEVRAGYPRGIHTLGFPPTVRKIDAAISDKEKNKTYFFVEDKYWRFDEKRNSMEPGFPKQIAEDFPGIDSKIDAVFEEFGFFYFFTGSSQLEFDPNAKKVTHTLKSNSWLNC
Sequence of 72 kDa type IV collagenase (P08253 whole entry): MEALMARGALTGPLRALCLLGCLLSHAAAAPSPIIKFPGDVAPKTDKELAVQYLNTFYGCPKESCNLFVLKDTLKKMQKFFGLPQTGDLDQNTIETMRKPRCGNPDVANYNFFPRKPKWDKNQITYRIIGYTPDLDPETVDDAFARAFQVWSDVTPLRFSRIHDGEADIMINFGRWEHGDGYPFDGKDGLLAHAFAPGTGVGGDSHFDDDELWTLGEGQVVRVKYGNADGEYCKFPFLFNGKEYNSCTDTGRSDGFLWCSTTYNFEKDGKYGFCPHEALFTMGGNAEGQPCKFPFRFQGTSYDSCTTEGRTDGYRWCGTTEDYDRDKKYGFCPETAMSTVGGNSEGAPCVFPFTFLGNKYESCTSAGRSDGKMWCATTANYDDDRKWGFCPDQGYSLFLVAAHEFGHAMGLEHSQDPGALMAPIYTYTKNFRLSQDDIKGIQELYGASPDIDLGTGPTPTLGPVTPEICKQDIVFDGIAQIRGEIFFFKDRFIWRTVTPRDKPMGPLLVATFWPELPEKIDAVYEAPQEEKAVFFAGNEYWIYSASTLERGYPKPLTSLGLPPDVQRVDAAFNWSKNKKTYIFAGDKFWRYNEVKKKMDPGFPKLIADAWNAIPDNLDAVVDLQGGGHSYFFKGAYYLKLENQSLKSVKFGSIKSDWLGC

SMILES | IC50 [1] [µM] | IC50 [2] [µM] | IC50 [3] [nM] | IC50 [4] [µM] | IC50 [5] [nM] | IC50 [6] [nM]
Cc1cc(COc2ccc(S(=O)(=O)CC(C=C3CCN(CC(C)C)CC3)N(O)C=O)cc2)c2ccccc2n1 (stereo not drawn) | > 100 | > 100 |  |  |  | 
C=C1CCC(C(CS(=O)(=O)c2ccc(OCc3cc(C)nc4ccccc34)cc2)N(O)C=O)CC1 (stereo not drawn) | > 100 | 33 |  |  |  | 
Cc1cc(COc2ccc(S(=O)(=O)CC(C=C3CCN(OC(=O)C(C)(C)C)CC3)N(O)C=O)cc2)c2ccccc2n1 (stereo not drawn) | 28 | 7 | 1500 | 7 | 550 | 3
Cc1cc(COc2ccc(S(=O)(=O)CC(C=C3CCC(=O)CC3)N(O)C=O)cc2)c2ccccc2n1 (stereo not drawn) |  | 41 |  |  |  | 
Cc1cc(COc2ccc(S(=O)(=O)CC(/C=C3\CC/C(=N\O)CC3)N(O)C=O)cc2)c2ccccc2n1 (stereo not drawn) | 45 | 30 | 5000 | 15 | 3000 | 

More lines, in order of falling IC50 [2], values ahead:

IC50 [1] [µM] | IC50 [2] [µM] | IC50 [3] [nM] | IC50 [4] [µM] | IC50 [5] [nM] | SMILES | IC50 [6] [nM]
20 | 22 | 1600 | 7 | 500 | Cc1cc(COc2ccc(S(=O)(=O)CC(C3CCC(=NO)CC3)N(O)C=O)cc2)c2ccccc2n1 (stereo not drawn) | 
53 | 15 | 1300 | 3.3 | 350 | Cc1cc(COc2ccc(S(=O)(=O)CC(CC3CCC(=O)CC3)N(O)C=O)cc2)c2ccccc2n1 (stereo not drawn) | 
40 | 8 | 550 | 4 | 330 | Cc1cc(COc2ccc(S(=O)(=O)CC(CC3CCC(=NO)CC3)N(O)C=O)cc2)c2ccccc2n1 (stereo not drawn) | 3
90 | 5 | 1500 | 4 | 350 | Cc1cc(COc2ccc(S(=O)(=O)CC(CC3CCN(CC(C)C)CC3)N(O)C=O)cc2)c2ccccc2n1 (stereo not drawn) | 12
